Literature values in publication PMC5698879 (Inorganic Chemistry, 2017).
Where two headings read alike, the source gives them in different places.

Conditions: [Cu^2+]tot = [chelator]tot = 50 μM

## O=C(O)CN(CCN(CC(=O)O)CC(=O)O)CCN(CC(=O)O)CC(=O)O [DTPA, diethylenetriaminepentacetic acid]
pH 6.6
  Calculated pCu (−log [Cu]free): 9.7
pH 7.4
  Calculated pCu (−log [Cu]free): 10.7
